Measurements: patent US20220288001A1, “CREATINE FOR IMMUNOTHERAPY” (The Regents of the University of California, priority 2019, published 2022)

Assays:
[1] = system: B16-OVA tumors; experiment: B16-OVA tumors in C57BL/6J WT mice depleted of T cells by anti-CD3 antibody, creatine supplementation; format: in vivo, mouse; conditions: B16-OVA in C57BL/6J WT mice depleted of T cells via i.p. anti-CD3 depletion antibody
Method: To establish solid tumors, mice were s.c. injected above the right flank with 1×10^6 B16-OVA or 3×10^5 MC38 cells. Before injection, cells in log phase of growth were harvested and suspended in phosphate-buffered saline (PBS), and 50 μl of cell suspension were injected subcutaneously above the flank. Tumor size was periodically measured with a digital Vernier caliper (Thermo Fisher Scientific). For creatine supplementation via i.p. injection, […] monohydrate (cat #C3630, Sigma-Aldrich) was dissolved in sterile PBS and i.p. injected to experimental animals daily at a dose of 10.5 mg per animal per injection. To study the effects of creatine supplementation on suppressing tumor growth, B6 mice were inoculated with B16-OVA tumor cells and monitored for tumor growth, with or without receiving creatine supplementation via i.p. injection or diet. […] To study the T cell-dependence of creatine supplementation induced anti-tumor effects, B6-OVA tumor growth was monitored and compared in B6 mice receiving i.p. injection of an anti-CD3 T cell depleting antibody ([…]; 100 μg/mouse/injection, twice per week) or an isotype control antibody (clone LTF-2, 100 μg/mouse/injection, twice per week), with or without i.p. supplement of creatine.

[2] = system: Zap-70; experiment: Western blot of TCR proximal signaling in CD8 T cells with creatine supplementation; format: cell-based, mouse; conditions: CrT-WT CD8 T cells; creatine 0.5 mM; anti-CD3 stimulation
Method: CD8 T cells were cultured in vitro in standard T cell culture medium comprising RPMI 1640 (Cat #10040, Corning), 10% FBS (Cat #F2442, Sigma), 1% Penicillin-Streptomycin-Glutamine (Cat #10378016, Gibco), 1% MEM Non-Essential Amino Acids Solution (Cat #11140050, Gibco), 1% HEPES (Cat #15630080, Gibco), 1% Sodium Pyruvate (100 mM) (Cat #11360070, Gibco), and 0.05 mM β -Mercaptoethanol (Cat #M3148, Sigma). Unless otherwise indicated, cells were seeded at 0.5×10^6 cells per well in 24-well plates and stimulated with plate-bound anti-CD3 (5 μg/ml) (clone 145-2C11), for up to 5 days. At indicated time point(s), cells were collected and analyzed for CrT mRNA expression using qPCR, for cell proliferation through cell counting, for viability through Annexin V/7-AAD staining followed by flow cytometry analysis, for surface activation marker (CD25) expression through surface staining followed by flow cytometry analysis, for effector molecule (Granzyme B, IL-2, and IFN-γ) production through intracellular staining followed by flow cytometry analysis, and for cytokine (IL-2 and IFN-γ) secretion through collecting cell culture supernatants followed by ELISA analysis. CrT protein expression and TCR signaling events were analyzed using western blot analysis. […]

[3] = system: MC38 colon cancer; experiment: MC38 colon cancer model, creatine supplementation and anti-PD-1 treatment; format: in vivo, mouse; conditions: MC38 (CrT-negative); creatine supplementation alone
Method: To establish solid tumors, mice were s.c. injected above the right flank with 1×10^6 B16-OVA or 3×10^5 MC38 cells. Before injection, cells in log phase of growth were harvested and suspended in phosphate-buffered saline (PBS), and 50 μl of cell suspension were injected subcutaneously above the flank. Tumor size was periodically measured with a digital Vernier caliper (Thermo Fisher Scientific). For creatine supplementation via i.p. injection, […] monohydrate (cat #C3630, Sigma-Aldrich) was dissolved in sterile PBS and i.p. injected to experimental animals daily at a dose of 10.5 mg per animal per injection. To study the combination effects of creatine supplementation and PD-1/PD-L1 blockade treatment, B6 mice were inoculated with MC38 tumor cells and monitored for tumor growth; experimental mice also received i.p. supplement of creatine, as well as i.p. injection of an anti-PD-1 blocking antibody (clone RMP1-14; 300 μg/mouse/injection, twice per week) or an isotype control antibody (clone 2A3; 300 μg/mouse/injection, twice per week), alone or in combination. Tumor-free mice were maintained for three months, then challenged with MC38 tumor cells again and monitored for tumor recurrence over another 6-month period.

CN(CC(=O)O)C(=N)N [creatine]
tumor growth [1]: could not be suppressed | Zap-70 phosphorylation [2]: significantly increased | tumor suppression [3]: tumor suppression benefits
